Results: patent US20250262169A1, “METHODS OF TREATING COENZYME Q10 DEFICIENCY” (BPGbio, Inc., priority 2024, published 2025)

How the values were obtained:
SH-SY5Y cell line = conditions: cited from earlier work
[1] = cited from earlier work
[2] = cited from earlier work; remark: listed apart in the source
[3] = rats, oral; cited from earlier work
SH-SY5Y cells = experiment: Oxidized CoQ10 levels in PABA-induced CoQ10 deficient neuronal cells; type: cell-based; conditions: 1 mM PABA for 5 days
Text: An established model of CoQ10 deficiency was used to study the effects of BPM31510 in vitro. […] A neuronal cell model of CoQ10 deficiency by treatment of the neuronal SH-SY5Y cell line with PABA has previously been established. In this model, a significant reduction of cellular ATP production and increase in mitochondrial reactive oxygen species (ROS) was observed. […] Therefore, this PABA-induced CoQ10 deficient in vitro model was used to evaluate the potency of BPM31510 to restore ATP levels and reduce mitochondrial ROS.
SH-SY5Y cells were pretreated for 5 days with 1 mM PABA or vehicle in all experiments.

COQ2 = target: T1, COQ2 (Homo sapiens, UniProt Q96H96); conditions: HL-60 cells; cited from earlier work
T1 construct: host or cells: HL-60 cells (endogenous enzyme)
T1 sequence (Q96H96 35-371): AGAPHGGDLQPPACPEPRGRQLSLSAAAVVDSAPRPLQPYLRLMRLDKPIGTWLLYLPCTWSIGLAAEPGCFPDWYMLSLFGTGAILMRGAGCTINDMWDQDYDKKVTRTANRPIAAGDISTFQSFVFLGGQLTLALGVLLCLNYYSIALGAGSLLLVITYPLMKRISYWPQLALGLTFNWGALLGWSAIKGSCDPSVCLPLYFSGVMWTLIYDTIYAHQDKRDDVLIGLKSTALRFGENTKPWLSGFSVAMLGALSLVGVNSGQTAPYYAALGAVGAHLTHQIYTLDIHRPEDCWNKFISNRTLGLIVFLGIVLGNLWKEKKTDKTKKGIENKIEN

[4] = CoQ10 supplementation 2.5 μM and 5 μM
[5] = young rats, after four days of dosing

SMILES	electron transport chain (ETC) activities (SH-SY5Y cell line; [4])	mitochondrial oxidative stress (SH-SY5Y cell line; [4])	exogenous CoQ10 required to restore ETC activities (SH-SY5Y cell line; PABA treated SH-SY5Y) [µM]	correction of ATP and ROS levels (SH-SY5Y cell line; higher concentrations (>10 μM), reports in literature)	solubility in water [1]	concentration of CoQ10 in brain ([2]; 1-2 month old animals, oral administration)	CoQ10 in cerebral tissues ([2]; 12 month old and 24 month old rats, oxidized and reduced forms)	concentration in heart or kidney [2, 5]	plasma, liver, and spleen concentrations [2, 5]	orally-administered CoQ10 absorbed [3]	reduction of oxidized CoQ10 levels (SH-SY5Y cells)	COQ2 activity (COQ2)
COC1=C(OC)C(=O)C(C/C=C(\C)CC/C=C(\C)CC/C=C(\C)CC/C=C(\C)CC/C=C(\C)CC/C=C(\C)CC/C=C(\C)CC/C=C(\C)CC/C=C(\C)CCC=C(C)C)=C(C)C1=O [CoQ10, Coenzyme Q10]	unable to fully restore	effective at significantly reducing	> 10	not complete	insoluble in water	did not increase	accumulation of CoQ10 in cerebral tissues	no increase	increased	2-3%	–	–
Nc1ccc(C(=O)O)cc1 [PABA, Para-aminobenzoic acid]	–	–	–	–	–	–	–	–	–	–	approximately 90%	inhibit COQ2 activity
